Results on three compounds are retold here after patent US20040039042A1, “Method of transdermal drug delivery” (priority 2002, published 2004).

Data set [1] can be described thus: Powdered drug mixed with Ocean® and rubbed into the skin over arthritic joints of patients. The data set is classed as in vivo, human. The settings on record: for side effects normally encountered when taking the drug: patients unable to continue the drugs because of GI toxicity, transdermal application in Ocean®. The source says: The present invention is a method for delivering drugs transdermally, especially insoluble drugs. The powdered form of a drug, such as that contained in the capsules of Vioxx® and Celebrex®, was mixed with Ocean® to form a mixture. The mixture was then rubbed into the skin at the needed location, for example, an arthritic joint, by volunteer subjects suffering from arthritis in different joints. The Vioxx® or Celebrex® suspension in Ocean® then penetrated the outer layer of the skin, traveled through the stratum corneum, dermis, and hypodermis, and entered the target tissue. […] Therefore, the present invention provides a method of delivery for NSAIDs, such as Vioxx® and Celebrex®, that can inhibit COX-2 at the inflammation site, without ever entering the GI tract, relieving the patient of any GI toxicity that may be caused by the drug.
In summary, the method of this patent for drug delivery has been tried by a few patients with severe arthritis. These patients were unable to continue using either Vioxx® or Celebrex® because of the severe GI toxicity those drugs caused. The patients opened the capsules of the drugs, mixed the powdered drug with Ocean®, and applied the solution to the skin of the arthritic area.

For data set [2] the following is noted: cited from earlier work.
Data set [3] is described as follows: Application of Carafate® to root canal wounds or dry sockets in dental patients. The data set is classed as in vivo, human. Conditions: applied to root canal wounds or dry sockets. The source says: Wounds in the mouth are especially prone to infection because of the dark, moist environment, the availability of energy sources from the food that is eaten, and the large numbers of microbes in the mouth. After a root canal or removal of a tooth, a patient is especially prone to infection since the open wound is an idea location for bacteria to settle, and because such a wound is hard to clean.

`Cc1ccc(-c2cc(C(F)(F)F)nn2-c2ccc(S(N)(=O)=O)cc2)cc1` [Celebrex®, 4-[5-(4-methylphenyl)-3-(triflouromethyl)-1 H-pyrazol-1-yl] benzenesulfonamide]: in data set [1], the “side effects normally encountered when taking the drug” value is listed as “without the side effects”. Further, in data set [2] (aqueous media), the “solubility in aqueous media” value was “low solubility”.
As for `CS(=O)(=O)c1ccc(C2=C(c3ccccc3)C(=O)OC2)cc1` [Vioxx®, 4-[4-(methyl-sulfonyl)phenyl]-3-phenyl-2(5H)-furanone], the “side effects normally encountered when taking the drug” value in data set [1] is given as “without the side effects”. In addition, the relief from arthritis result in data set [1] (patients with severe arthritis, powdered drug from capsules mixed with Ocean®, applied to skin of the arthritic area) is reported as “relief from their arthritis”. Moreover, the “time after application until pain and symptoms are reduced” value in data set [1] (suspension in Ocean® rubbed into the skin closest to the affected arthritic joint, volunteer subjects) is reported as “Within minutes”. Besides, the solubility in acetone entry in data set [2] (acetone) was “sparingly soluble”. For the same compound, the solubility in ethanol entry in data set [2] (ethanol) is on record as “very slightly soluble”. The “solubility in isopropyl acetate” value in data set [2] (isopropyl acetate) was “slightly soluble”. Further, the solubility in methanol entry in data set [2] (methanol) is listed as “slightly soluble”. The solubility in octanol entry in data set [2] (octanol) is “practically insoluble”. Also, the solubility in water entry in data set [2] (water) is “insoluble”.
As for “α-D-glucopyranoside, β-D-frucofuranosyl-, octakis-(hydrogen sulfate), aluminum complex [Carafate®]”, in data set [3] (a number of dental patients), the “infection of the wound area” value is “inhibits infection”. In data set [3] (dental patients), the healing process result is reported as “hastens the healing process”; the “pain and swelling in wounds” value is “reduce pain and swelling”.
